Patent US20180007908A1, “Pesticidal Mixtures” (BASF SE, priority 2007, published 2018)

What was measured:
Assay type in all cases: cell-based
Pyricularia oryzae [1] = test: microbe, parasite or virus in culture; details: 168 h, read-out: Observed activity (%)
Pyricularia oryzae [2] = test: microbe, parasite or virus in culture; details: 168 h, read-out: Observed activity (%); remark: listed apart in the source
Botrytis cinerea = test: Use Example No. 6: activity against gray mold Botrytis cinerea in the microtiter test (Botrci); details: 168 h, day 7 post-inoculation, efficacy as % of untreated control, read-out: Observed activity (%)

| Structure (SMILES) | inhibition at 2 ppm (Pyricularia oryzae [1]) [%] | inhibition at 0.001 ppm (Pyricularia oryzae [2]) [%] | inhibition at 0.016 ppm (Botrytis cinerea) [%] |
| --- | --- | --- | --- |
| N#Cc1nn(-c2c(Cl)cc(C(F)(F)F)cc2Cl)c(N)c1[S+]([O-])C(F)(F)F (stereo not drawn) [fipronil] | 5 |  |  |
| COC(=O)N(OC)c1ccccc1COc1ccn(-c2ccc(Cl)cc2)n1 [pyraclostrobin] |  | 31 | 4 |
